From paper PMC12799219, “In vitro and in vivo studies on the activity and selectivity of butoconazole in experimental infection by Trypanosoma cruzi” (Memórias do Instituto Oswaldo Cruz, 2026)
Values joined by “and” are separate entries in the source; they are usually repeats but may differ in a detail not shown here. Equal entries are not always repeated. Where two headings read alike, the source gives them in different places.

Legend:
[1] = Cytotoxicity assay on L929 fibroblasts (AlamarBlue); type: cell-based; details: mouse
Description: Mammalian cell cultures - L929 fibroblast lineage were cultured in Roswell Park Memorial Institute 1640 medium without phenol red (RPMI - Sigma-Aldrich, St. Louis, MO, USA), supplemented with 10% foetal bovine serum (FBS - Cultilab - SP - Brazil) and 2 mM glutamine (Sigma-Aldrich, St. Louis, MO, USA) with pH 7.2 - 7.4, as previously reported.[21] H9C2, cardiomyoblast cultures, were maintained in Dulbecco’s Modified Eagle’s Medium (DMEM) high glucose (4500 mg/L) medium supplemented (Sigma-Aldrich, St. Louis, MO, USA) with 10% FBS (Cultilab - SP -Brazil), 2 mM glutamine (Sigma-Aldrich, St. Louis, MO, USA) and 100 μg/mL penicillin/streptomycin (Sigma-Aldrich, St. Louis, MO, USA).[22] Both cell cultures maintained at 37 °C under an atmosphere of 5% CO2, with weekly dissociation protocol using 0.01% trypsin.
Cytotoxicity assay - The toxicity of the compounds was evaluated on two mammalian cell lines (L929 and H9C2), as reported.[21] The cells were seeded in 96-well plates (4 x 10^3 cells/well - for L929; 25x10^3 cells/well - for H9C2) and incubated at 37 °C and 5% CO2. The L929 cultures were kept under treatment for 96 and 168 h with a serial dilution (1:2) of the compounds (up to 400 μM). After the treatment periods, the AlamarBlue® reagent (Thermo Fisher Scientific Inc) was added and incubated for 24 h. The H9C2 cultures were also treated in serial dilution up to 200 μM for 24 h. PrestoBlue® reagent (Thermo Fisher Scientific Inc) was added to the cultures and incubated for 3 h. All plates were analysed in the spectrophotometer SpectraMaxM3 (570 and 600 nm) and LC50 values (concentration capable of inducing loss of viability in 50% of the cells) determined.[21] All assays were done at least twice, in triplicates.

[2] = system: T. cruzi (Y strain) blood trypomastigotes; assay: In vitro activity on bloodstream trypomastigotes; type: cell-based, Trypanosoma cruzi; details: for EC90 / EC50: Trypanosoma cruzi
Description: In vitro activity on bloodstream trypomastigotes - Swiss male mice were inoculated with 5 x 10^4 bloodstream trypomastigotes (BT, Y strain, DTU II) and at the parasitaemia peak [8th post-infection (dpi)], euthanised using 3% isoflurane and blood samples obtained by cardiac puncture (CEUA FIOCRUZ L038-2017). Then, 100 μL of parasite suspension (10^7/mL in RPMI medium + 5% FBS) was added to the same volume of RPMI + 5% FBS containing treatment with BTZ (serially diluted - 1:2) at twice the desired final concentration. After 2 and 24 h at 37 °C, the number of live parasites was determined by light microscopy quantification using a Neubauer chamber.[6] Untreated controls were carried out with parasites kept under the same conditions and BZ was run in parallel. The activity of the compounds was expressed by the EC50 and EC90 values. The assays were done at least twice, in duplicate.

[3] = system: T. cruzi intracellular forms (Tulahuen strain) in L929 cell lines; assay: Washout assay in L929 cultures infected with T. cruzi; type: cell-based, Trypanosoma cruzi; details: 10 µM for 168 h, then 168 h drug-free
Description: Washout assays in L929 cultures infected with T. cruzi - L929 cultures were infected with Tulahuen strain as above described and incubated or not for 168 h with 10 µM of BZ and BTZ (37 °C/5% CO2). RPMI culture medium (containing the tested compounds) was replaced every 72 h. Then, the cultures were rinsed with 0.1M PBS, and the drug-free culture medium added for another 168 h, replacing it every 72 h. The number of parasites released into the supernatant and of intracellular forms were analysed by light microscopy and by spectrophotometry (570 nm) after adding CPRG, respectively. The results were expressed as the percentage of reduction in parasite growth compared to untreated cells. BZ was used as a positive treatment control.[25] The data results from two independent experiments done in at least triplicate.

T. cruzi satDNA = assay: In vivo efficacy by qPCR (T. cruzi satDNA) in blood and heart; set-up: species or system Swiss male mice; details: for qPCR on blood samples, parasite DNA amplification: first trial, surviving mice: BZ 25 mg/kg/day, BTZ 45.61 mg/kg/day; for qPCR on blood samples, animals that amplified parasite DNA: second trial, higher doses: BZ 100, BTZ 182.44 mg/kg/day
Description: In vivo efficacy assessments by qPCR evaluations - At the end point, the animals were weighed; euthanised and submitted to cardiac puncture. 500 μL of fresh blood was collected and added to 1 mL of guanidine. The DNA was extracted from 300 μL of guanidine-EDTA blood, using the kit High Pure PCR Template Preparation (Roche diagnostics, Mannhein, Germany), according to the manufacturer's instructions. At the last step of the protocol, DNA was eluted in 100 μL of elution buffer. Also, cardiac tissues were collected, weighed and fragmented using a scalpel, 200 μL of Tissue Lysis Buffer was added and samples immediately placed in Styrofoam with dry ice. Blood and heart tissues were stored in the freezer at […] until analysis by qPCR. Heart tissues were homogenised using a Tissue Homogeneizer (Qiagen). DNA was extracted using the kit High Pure PCR Template Preparation (Roche diagnostics, Mannhein, Germany), according to the manufacturer's instructions for tissue samples. qPCR was done using a TaqMan multiplex assay, targeting T. cruzi […] and mouse GAPDH, as an endogenous control, and to normalise the parasite load. To obtain standard curves, serial dilutions of the DNA were prepared in appropriate plates for the assay. After normalising the results obtained on the samples, the parasite load was expressed as parasite equivalents/mL when evaluated in blood, or parasite equivalents/mg when in mouse tissue. In all trials, positive and negative controls were also tested in parallel.

[4] = 2 h, read-out: Activity on T. cruzi (Y strain) blood trypomastigotes EC50
[5] = 24 h, read-out: Activity on T. cruzi (Y strain) blood trypomastigotes EC50
[6] = 24 h, read-out: Activity on T. cruzi (Y strain) blood trypomastigotes pEC50 (converted)

Clc1ccc(CCC(Cn2ccnc2)Sc2c(Cl)cccc2Cl)cc1 (stereo not drawn) [BTZ, butoconazole]
CC50 at 96 h [1]: 23.9 ± 1.1 µM
CC50 at 168 h [1]: 17.5 ± 3.24 µM
EC50 at 168 h [1]: 24 µM
fold less potent than BZ on bloodstream trypomastigotes ([2]; 24 h, EC50 versus BZ): 2.3 fold
EC90 ([2]; 2 h): > 20 µM
EC50 [2, 4]: > 20 µM
EC90 ([2]; 24 h): 18.64 ± 0.11 µM
EC50 [2, 5]: 13.8 ± 0.7 µM
EC50 [2, 6]: 14.1 µM
Washout: reduction in the number of intracellular forms [3]: > 96% and 96 - 98% and 96 ± 4%
Washout: reduction in the number of released parasites [3]: 100 ± 0%
mice with negative qPCR in cardiac samples (T. cruzi satDNA; BTZ 184 mg/kg/day as printed): two of five
qPCR on blood samples, parasite DNA amplification (T. cruzi satDNA): negative (three of three animals)
qPCR on blood samples, animals that amplified parasite DNA (T. cruzi satDNA): only one animal

O=C(Cn1ccnc1[N+](=O)[O-])NCc1ccccc1 [BZ, benznidazole]
CC50 at 96 h [1]: > 400 µM
CC50 at 168 h [1]: > 200 µM
EC50 at 168 h ([1]; L929 fibroblast cells, printed in the 168 h column, read-out: Cytotoxicity on L929 cells pEC50 (converted)): > 200 µM
EC90 ([2]; 2 h): > 20 µM
EC50 [2, 4]: > 20 µM
EC90 ([2]; 24 h): 17.5 ± 0.65 µM
EC50 [2, 5]: 5.93 ± 0.15 µM
EC50 [2, 6]: 6.03 µM
Washout: reduction in the number of intracellular forms [3]: 98.6 ± 1.4%
Washout: reduction in the number of released parasites [3]: 100 ± 0%
negative qPCR in cardiac samples (T. cruzi satDNA; BZ 100 mg/kg/day): 100%
qPCR on blood samples, parasite DNA amplification (T. cruzi satDNA): parasite DNA was amplified in all animals
qPCR on blood samples, animals that amplified parasite DNA (T. cruzi satDNA): only one animal
